Assay results from patent publication US20090137550A1, “Novel Compounds” (Glaxo Group Limited, priority 2005, published 2009).

Assays:
[1] = tested on: TNF-stimulated IL8 production by human neutrophils; experiment: TNF-Stimulated IL-8 Production from Human Neutrophils; format: cell-based; details: TNF 100 ng/ml, approximately 20 hrs, IL-8 by ELISA
[2] = tested on: LPS-stimulated cytokine production (IL-1beta and/or TNFalpha); experiment: LPS-Stimulated Cytokine Production in Human Whole Blood; format: cell-based; details: 50 ng/ml LPS, 4 hour incubation, IL-1beta and/or TNFalpha by ELISA
Experimental: Assay: Test compound concentrations were prepared at 10× concentrations and LPS prepared at 1 ug/ml (final conc. of 50 ng/ml LPS) and added in 50 uL volumes to 1.5 mL eppendorf tubes. Heparinized human whole blood was obtained from healthy volunteers and was dispensed into eppendorf tubes or multiwell plates containing compounds and LPS in 0.2-0.4 mL volumes and the tubes incubated at 37 C. In some studies, compound was incubated with blood for up to 30 min prior to addition of LPS. Following a 4 hour incubation, the tubes or plates were centrifuged to remove cells and plasma was withdrawn and frozen at −80 C. Cytokine measurement: IL-Ibeta and/or TNFalpha were quantified using a standardized ELISA, or similar technology. Concentrations of IL-1beta or TNFalpha were determined from standard curves of the appropriate cytokine and IC50 values for test compound (concentration that inhibited 50% of LPS-stimulated cytokine production) were calculated by linear regression analysis.

[3] = tested on: IL-6, IL-8, GM-CSF, RANTES and COX-2; details: a number of different cell types; cited from earlier work
[4] = tested on: fibronectin and thrombospondin; details: Laping et al., 2002; cited from earlier work

Cc1cc(F)ccc1-c1nc(NCCNC(N)=NC#N)nc2c1ccc(=O)n2-c1c(F)cccc1F [Example 10]
IC50, TNF-stimulated IL-8 production [1]: active | IC50 (concentration that inhibited 50% of LPS-stimulated cytokine production) [2]: active

C[S+]([O-])c1ccc(-c2nc(-c3ccncc3)c(-c3ccc(F)cc3)[nH]2)cc1 (centres unmarked) [SB-203580]
decreasing the synthesis of pro-inflammatory proteins including IL-6, IL-8, GM-CSF, RANTES and COX-2 [3]: effective

COc1nccc(-c2c(-c3ccc(F)cc3)ncn2C2CCNCC2)n1 [SB-242235]
inhibition of TGF-β-induced increases in fibronectin and thrombospondin [4]: inhibited

Fc1ccc(-c2nc3n(c2-c2ccncc2)CCS3)cc1 [SK&F 86002]
decreasing the synthesis of pro-inflammatory proteins including IL-6, IL-8, GM-CSF, RANTES and COX-2 [3]: effective
